From paper PMC10897476, “Pyridylpiperazine efflux pump inhibitor boosts in vivo antibiotic efficacy against K. pneumoniae” (EMBO Molecular Medicine, 2023)
Marks after values point to notes of the source that are not given here.

Columns and labels:
Format in all cases: cell-based, Klebsiella pneumoniae
[1] = system: K. pneumoniae ATCC 43816 (WT); assay: MIC of antibiotics with and without EPI (REMA), WT strain; conditions: K. pneumoniae WT; for MIC: Klebsiella pneumoniae, ATCC43816, No EPI, read-out: Minimum Inhibitory Concentration
Method: Overnight cultures were diluted to an OD600 = 0.001 in CAMHB followed by addition of efflux pump inhibitors (EPIs) at a final concentration of 100 µM. […] Plates were incubated at 37 °C for up to 20 h. […] MICs were defined as the concentration that prevented 90% of resazurin turnover compared to the non-treated bacteria.

[2] = system: K. pneumoniae RamR^mut (K124*stop); assay: MIC of antibiotics with and without EPI (REMA), RamR mutant; conditions: for Minimum Inhibitory Concentration: K. pneumoniae RamR^mut
Method: (§1) MIC experiments were carried out according to the CLSI guidelines (CLSI [2023]). Overnight cultures were diluted to an OD600 = 0.001 in CAMHB followed by addition of efflux pump inhibitors (EPIs) at a final concentration of 100 µM. […] Plates were incubated at 37 °C for up to 20 h. Bacterial viability was evaluated using the resazurin microtitre assay (REMA) and measured by fluorescence using a Tecan Spaert multimode plate reader (Ex: 530 nm Em: 590 nm). MICs were defined as the concentration that prevented 90% of resazurin turnover compared to the non-treated bacteria.
(§2) Mutations in acrB or ramR identified in the BDM88855.HCl (1’) resistant mutant (a.k.a., KPJC11) were introduced individually into K. pneumoniae ATCC 43816 chromosome by allelic exchange (Cianfanelli et al, [2020]). Briefly, 1-kb PCR products centred around each point mutation were generated by amplifying acrB with primers RH1251 ([…][…]) and RH1252 ([…][…]) or ramR with primers RH1249 ([…][…]) and RH1250 ([…][…]) from KPJC11 genomic DNA. PCR fragments were cloned into pFOK (Cianfanelli et al, [2020]) using NEB-building kit ([New England Biolabs]) to generate pEP1533 and pEP1534. Correct plasmids were confirmed by sequencing and introduced into K. pneumoniae ATCC43816 WT via conjugation with the MFDpir+ E. coli donor strain. Exconjugants were selected on kanamycin (50 mg/L) plates at 37 °C and plasmid chromosomal integration was checked by PCR. […] The next day, cultures were diluted and plated onto LB agar. Isolated colonies were then patched onto LB plates with or without kanamycin (50 mg/L) and Km^S candidates were evaluated for correct allelic exchange via acrB or ramR sequencing and then WGS to confirm no additional mutations were introduced.

[3] = system: K. pneumoniae AcrB^V448E RamR^mut; assay: MIC of antibiotics with and without EPI (REMA), double mutant; conditions: for Minimum Inhibitory Concentration: K. pneumoniae AcrB^V448E RamR^mut
Method: as §1

K. pneumoniae AcrB^V448E = assay: MIC of antibiotics with and without EPI (REMA), AcrB V448E mutant; conditions: for Minimum Inhibitory Concentration: K. pneumoniae AcrB^V448E
Method: as §1, §2

[4] = Klebsiella pneumoniae, read-out: Minimum Inhibitory Concentration

SMILES | Minimum Inhibitory Concentration ([1]; + 100 µM 1') | Minimum Inhibitory Concentration ([1]; + 100 µM 5) | Minimum Inhibitory Concentration ([1]; + 100 µM PAβN) | MIC [1] [µg/mL] | Minimum Inhibitory Concentration ([2]; + 100 µM 1') [mg/L] | Minimum Inhibitory Concentration ([2]; + 100 µM 5) [mg/L] | Minimum Inhibitory Concentration ([2]; + 100 µM PAβN) | Minimum Inhibitory Concentration ([2]; No EPI) [mg/L] | Minimum Inhibitory Concentration ([3]; + 100 µM 1') [mg/L] | Minimum Inhibitory Concentration ([3]; + 100 µM 5) [mg/L] | Minimum Inhibitory Concentration ([3]; + 100 µM PAβN) | Minimum Inhibitory Concentration ([3]; No EPI) [mg/L] | Minimum Inhibitory Concentration (K. pneumoniae AcrB^V448E; + 100 µM 1') | Minimum Inhibitory Concentration (K. pneumoniae AcrB^V448E; + 100 µM 5) | Minimum Inhibitory Concentration (K. pneumoniae AcrB^V448E; + 100 µM PAβN) | Minimum Inhibitory Concentration (K. pneumoniae AcrB^V448E; No EPI) [mg/L] | MIC [2, 4] [µg/mL] | MIC [3, 4] [µg/mL] | MIC (K. pneumoniae AcrB^V448E; [4]) [µg/mL]
CC(=O)O[C@H]1C[C@@]2(C)[C@@H](C[C@@H](O)[C@H]3[C@@]4(C)CC[C@@H](O)[C@@H](C)[C@@H]4CC[C@@]32C)/C1=C(\CCC=C(C)C)C(=O)O [Fusidic acid] | 85 mg/L | 128 mg/L | 21^# mg/L | 128 | 128 | 128 | 85 mg/L | 128 | 128 | 128 | 107 mg/L | 128 | 128 mg/L | 128 mg/L | 32^# mg/L | 128 |  |  | 
CC(=O)NC[C@H]1CN(c2ccc(N3CCOCC3)c(F)c2)C(=O)O1 [Linezolid] | 13^# mg/L | 27^# mg/L | 64^# mg/L | 128 | 128 | 107 | 128 mg/L | 128 | 128 | 128 | 128 mg/L | 128 | 85 mg/L | 128 mg/L | 64^# mg/L | 128 |  |  | 
C[C@@H](O)[C@H]1C(=O)N2C(C(=O)O)=C(S[C@@H]3CN[C@H](C(=O)N(C)C)C3)[C@H](C)[C@H]12 [Meropenem] | 0.50 mg/L | 0.50 mg/L | 0.50 mg/L | 0.5 | 0.50 | 0.50 | 0.50 mg/L |  | 0.50 | 0.50 | 1.0 mg/L |  | 0.67 mg/L | 0.50 mg/L | 0.50 mg/L |  | 0.5 | 0.67 | 0.5
CO[C@@H]1[C@@H](OC(N)=O)[C@@H](O)[C@H](Oc2ccc3c(O)c(NC(=O)c4ccc(O)c(CC=C(C)C)c4)c(=O)oc3c2C)OC1(C)C [Novobiocin] | 13^# mg/L | 13^# mg/L | 11^# mg/L | 64 | 128 | 85 | 43^# mg/L | 128 | 128 | 128 | 8^# mg/L | 128 | 64^# mg/L | 32^# mg/L | 16^# mg/L | 128 |  |  | 
Cc1onc(-c2ccccc2)c1C(=O)N[C@@H]1C(=O)N2[C@@H]1SC(C)(C)[C@@H]2C(=O)O [Oxacillin] | 32^# mg/L | 43^# mg/L |  |  |  |  |  |  |  |  |  |  |  |  |  |  |  |  | 
